Columns and labels:
NCI-H1299 [1] = assay: Cytotoxicity against human H1299 cells assessed as cell viability at 100 uM relative to control; assay type: functional; conditions: read-out: Activity
MCF7 [2] = assay: Cytotoxicity against human MCF7 cells assessed as cell viability at 100 uM relative to control; assay type: functional; conditions: read-out: Activity
T47D [3] = assay: Cytotoxicity against human T47D cells assessed as reduction in cell viability; assay type: functional, cell-based
MCF7 [4] = assay: Cytotoxicity against human MCF7 cells assessed as reduction in cell viability; assay type: functional, cell-based
MRC5 = assay: Cytotoxicity against human MRC5 cells assessed as reduction in cell viability; assay type: cell-based
BXPC-3 [5] = assay: Cytotoxicity against human BxPC3 cells assessed as cell viability at 100 uM relative to control; assay type: functional; conditions: read-out: Activity
Caco-2 [6] = assay: Cytotoxicity against human Caco2 cells assessed as reduction in cell viability; assay type: functional, cell-based
SW1990 [7] = assay: Cytotoxicity against human SW1990 cells assessed as cell viability at 100 uM relative to control; assay type: functional; conditions: read-out: Activity
A549 [8] = assay: Cytotoxicity against human A549 cells assessed as reduction in cell viability; assay type: functional, cell-based
SW48 [9] = assay: Cytotoxicity against human SW48 cells assessed as cell viability at 100 uM relative to control; assay type: functional; conditions: read-out: Activity
CNE [10] = assay: Cytotoxicity against human CNE1 cells assessed as cell viability at 100 uM relative to control; assay type: functional; conditions: read-out: Activity
SW1990 [11] = assay: Cytotoxicity against human SW1990 cells assessed as reduction in cell viability; assay type: functional, cell-based
MCF-10A = assay: Cytotoxicity against human MCF10A cells assessed as reduction in cell viability; assay type: cell-based
CNE [12] = assay: Cytotoxicity against human CNE1 cells assessed as reduction in cell viability; assay type: functional, cell-based
SH-SY5Y [13] = assay: Cytotoxicity against human SH-SY5Y cells assessed as reduction in cell viability; assay type: functional, cell-based
Caco-2 [14] = assay: Cytotoxicity against human Caco2 cells assessed as cell viability at 100 uM relative to control; assay type: functional; conditions: read-out: Activity
MDA-MB-231 [15] = assay: Cytotoxicity against human MDA-MB-231 cells assessed as reduction in cell viability; assay type: functional, cell-based
BXPC-3 [16] = assay: Cytotoxicity against human BxPC3 cells assessed as reduction in cell viability; assay type: functional, cell-based
[17] = Cytotoxicity against human HK1 cells assessed as reduction in cell viability; assay type: functional, cell-based; conditions: HK-1
HT-29 [18] = assay: Cytotoxicity against human HT-29 cells assessed as reduction in cell viability; assay type: functional, cell-based
SUNE1 [19] = assay: Cytotoxicity against human SUNE1 cells assessed as cell viability at 100 uM relative to control; assay type: functional; conditions: read-out: Activity
NCI-H1299 [20] = assay: Cytotoxicity against human H1299 cells assessed as reduction in cell viability; assay type: functional, cell-based
HT-29 [21] = assay: Cytotoxicity against human HT-29 cells assessed as cell viability at 100 uM relative to control; assay type: functional; conditions: read-out: Activity
MDA-MB-468 [22] = assay: Cytotoxicity against human MDA-MB-468 cells assessed as reduction in cell viability; assay type: functional, cell-based
A549 [23] = assay: Cytotoxicity against human A549 cells assessed as cell viability at 100 uM relative to control; assay type: functional; conditions: read-out: Activity
ASPC1 [24] = assay: Cytotoxicity against human AsPC1 cells assessed as reduction in cell viability; assay type: functional, cell-based
HCT-116 [25] = assay: Cytotoxicity against human HCT116 cells assessed as cell viability at 100 uM relative to control; assay type: functional; conditions: read-out: Activity
[26] = Cytotoxicity against human MCF10A cells assessed as cell viability at 100 uM relative to control; assay type: cell-based, MCF-10A; conditions: read-out: Activity
SK-BR-3 [27] = assay: Cytotoxicity against human SKBR3 cells assessed as reduction in cell viability; assay type: functional, cell-based
MDA-MB-231 [28] = assay: Cytotoxicity against human MDA-MB-231 cells assessed as cell viability at 100 uM relative to control; assay type: functional; conditions: read-out: Activity
[29] = Cytotoxicity against human HK1 cells assessed as cell viability at 100 uM relative to control; assay type: functional; conditions: HK-1, read-out: Activity
[30] = Cytotoxicity against human MRC5 cells assessed as cell viability at 100 uM relative to control; assay type: cell-based; conditions: read-out: Activity
T47D [31] = assay: Cytotoxicity against human T47D cells assessed as cell viability at 100 uM relative to control; assay type: functional; conditions: read-out: Activity
SW48 [32] = assay: Cytotoxicity against human SW48 cells assessed as reduction in cell viability; assay type: functional, cell-based
ASPC1 [33] = assay: Cytotoxicity against human AsPC1 cells assessed as cell viability at 100 uM relative to control; assay type: functional; conditions: read-out: Activity
SK-BR-3 [34] = assay: Cytotoxicity against human SKBR3 cells assessed as cell viability at 100 uM relative to control; assay type: functional; conditions: read-out: Activity
SH-SY5Y [35] = assay: Cytotoxicity against human SH-SY5Y cells assessed as cell viability at 100 uM relative to control; assay type: functional; conditions: read-out: Activity
HCT-116 [36] = assay: Cytotoxicity against human HCT116 cells assessed as reduction in cell viability; assay type: functional, cell-based
SUNE1 [37] = assay: Cytotoxicity against human SUNE1 cells assessed as reduction in cell viability; assay type: functional, cell-based
MDA-MB-468 [38] = assay: Cytotoxicity against human MDA-MB-468 cells assessed as cell viability at 100 uM relative to control; assay type: functional; conditions: read-out: Activity

| SMILES | viability at 100 µM (NCI-H1299 [1]) [%] | viability at 100 µM (MCF7 [2]) [%] | IC50 (T47D [3]) [µM] | IC50 (MCF7 [4]) [µM] | IC50 (MRC5) [µM] | viability at 100 µM (BXPC-3 [5]) [%] | IC50 (Caco-2 [6]) [µM] | viability at 100 µM (SW1990 [7]) [%] | IC50 (A549 [8]) [µM] | viability at 100 µM (SW48 [9]) [%] | viability at 100 µM (CNE [10]) [%] | IC50 (SW1990 [11]) [µM] | IC50 (MCF-10A) [µM] | IC50 (CNE [12]) [µM] | IC50 (SH-SY5Y [13]) [µM] | viability at 100 µM (Caco-2 [14]) [%] | IC50 (MDA-MB-231 [15]) [µM] | IC50 (BXPC-3 [16]) [µM] | IC50 [17] [µM] | IC50 (HT-29 [18]) [µM] | other results |
| --- | --- | --- | --- | --- | --- | --- | --- | --- | --- | --- | --- | --- | --- | --- | --- | --- | --- | --- | --- | --- | --- |
| O=[N+]([O-])c1ccc(NC(CO)CO)cc1C(F)(F)F | 72.3 | 49.7 | > 100 | 88.1 | 41 | 108 | > 100 | 71.5 | > 100 | 78.9 | 100 | > 100 | > 100 | > 100 | > 100 | 96.1 | > 100 | > 100 | > 100 | > 100 | viability at 100 µM (SUNE1 [19]): 104%; IC50 (NCI-H1299 [20]): > 100 µM; viability at 100 µM (HT-29 [21]): 110%; IC50 (MDA-MB-468 [22]): > 100 µM; viability at 100 µM (A549 [23]): 61.9%; IC50 (ASPC1 [24]): > 100 µM; viability at 100 µM (HCT-116 [25]): 86.8%; viability at 100 µM [26]: 102%; IC50 (SK-BR-3 [27]): > 100 µM; viability at 100 µM (MDA-MB-231 [28]): 65.7%; viability at 100 µM [29]: 92.8%; viability at 100 µM [30]: 32.8%; viability at 100 µM (T47D [31]): 71.2%; IC50 (SW48 [32]): > 100 µM; viability at 100 µM (ASPC1 [33]): 87.3%; viability at 100 µM (SK-BR-3 [34]): 79.4%; viability at 100 µM (SH-SY5Y [35]): 70.8%; IC50 (HCT-116 [36]): > 100 µM; IC50 (SUNE1 [37]): > 100 µM; viability at 100 µM (MDA-MB-468 [38]): 98.7% |
| O=[N+]([O-])c1ccccc1NC(CCl)CCl | 109 | 37.7 | > 100 | 50.9 | > 100 | 105 | > 100 | 64.4 | > 100 | 62.6 | 72.5 | > 100 | > 100 | > 100 | > 100 | 104 | > 100 | > 100 | > 100 | > 100 | viability at 100 µM (SUNE1 [19]): 80.5%; IC50 (NCI-H1299 [20]): > 100 µM; viability at 100 µM (HT-29 [21]): 65.3%; IC50 (MDA-MB-468 [22]): > 100 µM; viability at 100 µM (A549 [23]): 82.9%; IC50 (ASPC1 [24]): > 100 µM; viability at 100 µM (HCT-116 [25]): 64.9%; viability at 100 µM [26]: 88.7%; IC50 (SK-BR-3 [27]): > 100 µM; viability at 100 µM (MDA-MB-231 [28]): 85.1%; viability at 100 µM [29]: 101%; viability at 100 µM [30]: 54.8%; viability at 100 µM (T47D [31]): 69.8%; IC50 (SW48 [32]): > 100 µM; viability at 100 µM (ASPC1 [33]): 75.2%; viability at 100 µM (SK-BR-3 [34]): 79.9%; viability at 100 µM (SH-SY5Y [35]): 60.8%; IC50 (HCT-116 [36]): > 100 µM; IC50 (SUNE1 [37]): > 100 µM; viability at 100 µM (MDA-MB-468 [38]): 63.6% |
| O=[N+]([O-])c1cc(C(F)(F)F)ccc1NC(CO)CO | 91.3 | 57.4 | > 100 | > 100 | > 100 | 108 | > 100 | 68.5 | > 100 | 98.8 | 106 | > 100 | > 100 | > 100 | > 100 | 89.5 | > 100 | > 100 | > 100 | > 100 | viability at 100 µM (SUNE1 [19]): 83.4%; IC50 (NCI-H1299 [20]): > 100 µM; viability at 100 µM (HT-29 [21]): 95.2%; IC50 (MDA-MB-468 [22]): > 100 µM; viability at 100 µM (A549 [23]): 57.9%; IC50 (ASPC1 [24]): > 100 µM; viability at 100 µM (HCT-116 [25]): 83.9%; viability at 100 µM [26]: 102%; IC50 (SK-BR-3 [27]): > 100 µM; viability at 100 µM (MDA-MB-231 [28]): 67.3%; viability at 100 µM [29]: 92.9%; viability at 100 µM [30]: 64.9%; viability at 100 µM (T47D [31]): 68.6%; IC50 (SW48 [32]): > 100 µM; viability at 100 µM (ASPC1 [33]): 81.8%; viability at 100 µM (SK-BR-3 [34]): 66.4%; viability at 100 µM (SH-SY5Y [35]): 84.9%; IC50 (HCT-116 [36]): > 100 µM; IC50 (SUNE1 [37]): > 100 µM; viability at 100 µM (MDA-MB-468 [38]): 100% |
| O=[N+]([O-])c1ccc(NC(CO)CO)c([N+](=O)[O-])c1 | 89.8 | 55.5 | > 100 | > 100 | > 100 | 104 | > 100 | 65.8 | > 100 | 88.2 | 102 | > 100 | > 100 | > 100 | > 100 | 102 | > 100 | > 100 | > 100 | > 100 | viability at 100 µM (SUNE1 [19]): 106%; IC50 (NCI-H1299 [20]): > 100 µM; viability at 100 µM (HT-29 [21]): 89.6%; IC50 (MDA-MB-468 [22]): > 100 µM; viability at 100 µM (A549 [23]): 77.4%; IC50 (ASPC1 [24]): > 100 µM; viability at 100 µM (HCT-116 [25]): 81.9%; viability at 100 µM [26]: 105%; IC50 (SK-BR-3 [27]): > 100 µM; viability at 100 µM (MDA-MB-231 [28]): 79.4%; viability at 100 µM [29]: 103%; viability at 100 µM [30]: 78.9%; viability at 100 µM (T47D [31]): 79.9%; IC50 (SW48 [32]): > 100 µM; viability at 100 µM (ASPC1 [33]): 108%; viability at 100 µM (SK-BR-3 [34]): 98.9%; viability at 100 µM (SH-SY5Y [35]): 86.1%; IC50 (HCT-116 [36]): > 100 µM; IC50 (SUNE1 [37]): > 100 µM; viability at 100 µM (MDA-MB-468 [38]): 106% |

Reference: ChEMBL document CHEMBL4610038, “The synthesis of trifluoromethylated N-nitroaryl-2-amino-1,3-dichloropropane derivatives and their evaluation as potential anti-cancer agents” (Bioorg Med Chem Lett, 2020)
